Read-outs that look alike come from different tables or passages of the source.
Key:
[1] = target: T1, RIPK1 (Homo sapiens, UniProt Q13546); test: RIPK1 ADP-Glo biochemical kinase assay
T1 sequence (Q13546 1-671): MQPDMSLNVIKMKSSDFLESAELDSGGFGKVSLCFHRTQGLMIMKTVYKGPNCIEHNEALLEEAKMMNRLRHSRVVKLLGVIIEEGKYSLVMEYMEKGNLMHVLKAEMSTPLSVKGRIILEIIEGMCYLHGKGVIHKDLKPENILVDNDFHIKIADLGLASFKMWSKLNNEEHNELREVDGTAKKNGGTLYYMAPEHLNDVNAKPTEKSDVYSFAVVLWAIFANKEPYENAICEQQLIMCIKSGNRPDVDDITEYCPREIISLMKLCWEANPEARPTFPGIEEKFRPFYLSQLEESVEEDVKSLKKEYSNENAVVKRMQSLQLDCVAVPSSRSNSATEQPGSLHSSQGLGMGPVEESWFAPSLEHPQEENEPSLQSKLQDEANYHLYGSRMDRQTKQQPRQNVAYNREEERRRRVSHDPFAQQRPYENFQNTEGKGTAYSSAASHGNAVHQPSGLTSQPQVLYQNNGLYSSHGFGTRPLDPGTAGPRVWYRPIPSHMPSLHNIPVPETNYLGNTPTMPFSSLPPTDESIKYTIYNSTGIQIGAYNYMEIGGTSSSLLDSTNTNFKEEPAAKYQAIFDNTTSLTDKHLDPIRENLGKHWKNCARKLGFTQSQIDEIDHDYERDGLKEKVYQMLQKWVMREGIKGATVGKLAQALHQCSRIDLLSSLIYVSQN
Outline: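 RIPK1 at 31 ng/well in Tris pH 7.4 buffer with MgCl2, BSA, DTT and MnCl2, reacted with compounds (duplicate) for 30 min at 30 °C. ADP formed detected by ADP-Glo: 40 min stop/depletion, then 30 min detection reagent at room temperature; luminescence read.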

[2] = system: L929 cells; test: L929 cell necroptosis assay (TNFa + zVAD, CellTiter-Glo recovery); assay type: cell-based, murine; conditions: Mus musculus, L929, 18 h, TNFa 2 ng/mL + zVAD-fmk, read-out: L929-CTG-recovery, L929, TNFa + zVAD (IC50)
Outline: (§1)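 Human U937 (50K/well, 60 uM zVAD-fmk medium, plated same day) or murine L929 (10K/well, plated 18 h, then 40 uM zVAD-fmk medium) were grown in RPMI with 10% FBS. Both were pretreated with compound for 1 h at 37 °C before TNFa at 2 ng/mL final. Viability was read by CellTiter-Glo luminescence after 18 h.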

[3] = system: U937 cells; test: U937 cell necroptosis assay (TNFa + zVAD, CellTiter-Glo recovery); assay type: cell-based; conditions: Homo sapiens, U-937, 18 h, TNFa 2 ng/mL + zVAD-fmk, read-out: U937 Zvad TNF CTG Recovery, U937, TNFa + zVAD (IC50)
Outline: as §1

[4] = read-out: RIPK1 ADP-Glo Kinase (IC50)

| Structure (SMILES) | IC50 [1, 4] | IC50 [2] | IC50 [3] | IC50 [1] |
| --- | --- | --- | --- | --- |
| CN1C(=O)[C@@H](NC(=O)n2cc(Cc3cccc(F)n3)cn2)CCc2ccc(C#CC3(O)COC3)cc21 [I-113, (S)-4-((6-Fluoropyridin-2-yl)methyl)-N-(8-((3-hydroxyoxetan-3-yl)ethynyl)-1-methyl-2-oxo-2,3,4,5-tetrahydro-1H-benzo[b]azepin-3-yl)-1H-pyrazole-1-carboxamide] | 11.8 nM | 37 nM | 1.3 nM |  |
| CN1C(=O)[C@@H](NC(=O)n2cc(Cc3cccc(F)n3)cn2)CCc2ccc(C#CC(C)(C)O)cc21 [I-114, (S)-4-((6-Fluoropyridin-2-yl)methyl)-N-(8-(3-hydroxy-3-methylbut-1-yn-1-yl)-1-methyl-2-oxo-2,3,4,5-tetrahydro-1H-benzo[b]azepin-3-yl)-1H-pyrazole-1-carboxamide] | 19.4 nM | 51.2 nM | 1 nM |  |
| CN1C(=O)[C@@H](NC(=O)n2cc(Cc3cccc(F)n3)cn2)CCc2ccc(C#CC(C)(C)CO)cc21 [I-115, (S)-4-((6-fluoropyridin-2-yl)methyl)-N-(8-(4-hydroxy-3,3-dimethylbut-1-yn-1-yl)-1-methyl-2-oxo-2,3,4,5-tetrahydro-1H-benzo[b]azepin-3-yl)-1H-pyrazole-1-carboxamide] | 28.3 nM | 38.5 nM | 0.5 nM |  |
| CN1C(=O)[C@@H](NC(=O)n2cc(Cc3cccc(F)n3)cn2)CCc2ccc(C#CC3(O)CCOCC3)cc21 [I-116, (S)-4-((6-Fluoropyridin-2-yl)methyl)-N-(8-((4-hydroxytetrahydro-2H-pyran-4-yl)ethynyl)-1-methyl-2-oxo-2,3,4,5-tetrahydro-1H-benzo[b]azepin-3-yl)-1H-pyrazole-1-carboxamide] | 12.9 nM | 69.4 nM | 0.5 nM |  |
| CN1C(=O)[C@@H](NC(=O)n2cc(Cc3cccc(F)n3)cn2)CCc2ccc(C#CC3(O)CCC3)cc21 [I-117, (S)-4-((6-Fluoropyridin-2-yl)methyl)-N-(8-((1-hydroxycyclobutyl)ethynyl)-1-methyl-2-oxo-2,3,4,5-tetrahydro-1H-benzo[b]azepin-3-yl)-1H-pyrazole-1-carboxamide] |  | 13.1 nM | 1.2 nM | 12.3 nM |
| CN1C(=O)[C@@H](NC(=O)c2cc(Cc3csc(C(F)(F)F)n3)ccn2)COc2ccc(C#CC3(O)COC3)cc21 [I-124, (S)—N-(7-((3-hydroxyoxetan-3-yl)ethynyl)-5-methyl-4-oxo-2,3,4,5-tetrahydrobenzo[b][1,4]oxazepin-3-yl)-4-((2-(trifluoromethyl)thiazol-4-yl)methyl)picolinamide] | 30.4 nM | 1590 nM | 113 nM |  |
| CN1C(=O)[C@@H](NC(=O)c2cc(Oc3cccnc3F)ccn2)COc2ccc(C#CC3CCOCC3)cc21 [I-125, (S)-4-((2-fluoropyridin-3-yl)oxy)-N-(5-methyl-4-oxo-7-((tetrahydro-2H-pyran-4-yl)ethynyl)-2,3,4,5-tetrahydrobenzo[b][1,4]oxazepin-3-yl)picolinamide] | 23.4 nM | 11.5 nM | 0.9 nM |  |
| CN1C(=O)[C@@H](NC(=O)c2cc(Oc3cnn(C)c3)ccn2)COc2ccc(C#CC3(O)COC3)cc21 [I-127, (S)—N-(7-((3-hydroxyoxetan-3-yl)ethynyl)-5-methyl-4-oxo-2,3,4,5-tetrahydrobenzo[b][1,4]oxazepin-3-yl)-4-((1-methyl-1H-pyrazol-4-yl)oxy)picolinamide] | 15 nM | 198 nM | 6.7 nM |  |
| Cc1cccc(Oc2ccnc(C(=O)N[C@H]3COc4ccc(C#CC5(O)COC5)cc4N(C)C3=O)c2)n1 [I-131, (S)—N-(7-((3-hydroxyoxetan-3-yl)ethynyl)-5-methyl-4-oxo-2,3,4,5-tetrahydrobenzo[b][1,4]oxazepin-3-yl)-4-((6-methylpyridin-2-yl)oxy)picolinamide] | 24.5 nM | 2670 nM | 263 nM |  |

Now from value to compound, other results behind:

| IC50 [1, 4] | Structure (SMILES) | IC50 [2] | IC50 [3] | IC50 [1] |
| --- | --- | --- | --- | --- |
| 53.8 nM | CN1C(=O)[C@@H](NC(=O)n2cc(Cc3cccc(F)n3)cn2)COc2ccc(C#CC(C)(C)C3CCOCC3)cc21 [I-107, (S)-4-((6-Fluoropyridin-2-yl)methyl)-N-(5-methyl-7-(3-methyl-3-(tetrahydro-2H-pyran-4-yl)but-1-yn-1-yl)-4-oxo-2,3,4,5-tetrahydrobenzo[b][1,4]oxazepin-3-yl)-1H-pyrazole-1-carboxamide] | 307 nM | 2 nM |  |
| 88 nM | CN1C(=O)[C@@H](NC(=O)n2cc(Cc3cccc(F)n3)cn2)COc2ccc(C#CC3COC3)cc21 [I-108, (S)-4-((6-Fluoropyridin-2-yl)methyl)-N-(5-methyl-7-(oxetan-3-ylethynyl)-4-oxo-2,3,4,5-tetrahydrobenzo[b][1,4]oxazepin-3-yl)-1H-pyrazole-1-carboxamide] | 2090 nM | 12.8 nM |  |
| 26.3 nM | Cc1cccc(Cc2cnn(C(=O)N[C@H]3COc4ccc(C#CC5COC5)cc4N(C)C3=O)c2)n1 [I-109, (S)—N-(5-Methyl-7-(oxetan-3-ylethynyl)-4-oxo-2,3,4,5-tetrahydrobenzo[b][1,4]oxazepin-3-yl)-4-((6-methylpyridin-2-yl)methyl)-1H-pyrazole-1-carboxamide] | 3510 nM | 188 nM |  |
| 38.4 nM | Cc1cccc(Cc2cnn(C(=O)N[C@H]3CCc4ccc(Br)cc4N(C)C3=O)c2)n1 [I-118, (S)—N-(8-Bromo-1-methyl-2-oxo-2,3,4,5-tetrahydro-1H-benzo[b]azepin-3-yl)-4-((6-methylpyridin-2-yl)methyl)-1H-pyrazole-1-carboxamide] | 7670 nM | 256 nM |  |
| 17.1 nM | Cc1cccc(Cc2cnn(C(=O)N[C@H]3CCc4ccc(C#CC(C)(C)O)cc4N(C)C3=O)c2)n1 [I-119, (S)—N-(8-(3-Hydroxy-3-methylbut-1-yn-1-yl)-1-methyl-2-oxo-2,3,4,5-tetrahydro-1H-benzo[b]azepin-3-yl)-4-((6-methylpyridin-2-yl)methyl)-1H-pyrazole-1-carboxamide] | 407 nM | 16.6 nM |  |
| 26.1 nM | CN1C(=O)[C@@H](NC(=O)n2cc(Cc3cccc(F)n3)cn2)CCc2c(F)cc(C#CC(C)(C)O)cc21 [I-121, (S)—N-(6-Fluoro-8-(3-hydroxy-3-methylbut-1-yn-1-yl)-1-methyl-2-oxo-2,3,4,5-tetrahydro-1H-benzo[b]azepin-3-yl)-4-((6-fluoropyridin-2-yl)methyl)-1H-pyrazole-1-carboxamide] | 11000 nM | 174 nM |  |
| 32.5 nM | CN1C(=O)[C@@H](NC(=O)n2cc(Cc3cccc(F)n3)cn2)CCc2c(F)cc(C#CC(C)(C)CO)cc21 [I-122, (S)—N-(6-Fluoro-8-(4-hydroxy-3,3-dimethylbut-1-yn-1-yl)-1-methyl-2-oxo-2,3,4,5-tetrahydro-1H-benzo[b]azepin-3-yl)-4-((6-fluoropyridin-2-yl)methyl)-1H-pyrazole-1-carboxamide] | 8670 nM | 97.4 nM |  |
| 20 nM | CN1C(=O)[C@@H](NC(=O)c2cc(Cc3csc(C(F)(F)F)n3)ccn2)COc2ccc(C#CC(C)(C)O)cc21 [I-123, (S)—N-(7-(3-hydroxy-3-methylbut-1-yn-1-yl)-5-methyl-4-oxo-2,3,4,5-tetrahydrobenzo[b][1,4]oxazepin-3-yl)-4-((2-(trifluoromethyl)thiazol-4-yl)methyl)picolinamide] | 853 nM | 97.8 nM |  |
| 15.3 nM | CN1C(=O)[C@@H](NC(=O)c2cc(Oc3cnn(C)c3)ccn2)COc2ccc(C#CC(C)(C)O)cc21 [I-126, (S)—N-(7-(3-hydroxy-3-methylbut-1-yn-1-yl)-5-methyl-4-oxo-2,3,4,5-tetrahydrobenzo[b][1,4]oxazepin-3-yl)-4-((1-methyl-1H-pyrazol-4-yl)oxy)picolinamide] | 155 nM | 8.9 nM |  |
| 33.4 nM | Cc1cccc(Oc2ccnc(C(=O)N[C@H]3COc4ccc(C#CC(C)(C)O)cc4N(C)C3=O)c2)n1 [I-130, (S)—N-(7-(3-hydroxy-3-methylbut-1-yn-1-yl)-5-methyl-4-oxo-2,3,4,5-tetrahydrobenzo[b][1,4]oxazepin-3-yl)-4-((6-methylpyridin-2-yl)oxy)picolinamide] | 5040 nM | 311 nM |  |

— patent US12156880B2, “Heterocyclic RIP1 kinase inhibitors” (Rigel Pharmaceuticals, Inc., priority 2021, dated 2024)
